Experimental data reported in PMC8979230 (RSC Advances, 2022).

Target: PDE10A (Homo sapiens, UniProt Q9Y233)
Format: biochemical

Chain of PDE10A (Q9Y233 whole entry): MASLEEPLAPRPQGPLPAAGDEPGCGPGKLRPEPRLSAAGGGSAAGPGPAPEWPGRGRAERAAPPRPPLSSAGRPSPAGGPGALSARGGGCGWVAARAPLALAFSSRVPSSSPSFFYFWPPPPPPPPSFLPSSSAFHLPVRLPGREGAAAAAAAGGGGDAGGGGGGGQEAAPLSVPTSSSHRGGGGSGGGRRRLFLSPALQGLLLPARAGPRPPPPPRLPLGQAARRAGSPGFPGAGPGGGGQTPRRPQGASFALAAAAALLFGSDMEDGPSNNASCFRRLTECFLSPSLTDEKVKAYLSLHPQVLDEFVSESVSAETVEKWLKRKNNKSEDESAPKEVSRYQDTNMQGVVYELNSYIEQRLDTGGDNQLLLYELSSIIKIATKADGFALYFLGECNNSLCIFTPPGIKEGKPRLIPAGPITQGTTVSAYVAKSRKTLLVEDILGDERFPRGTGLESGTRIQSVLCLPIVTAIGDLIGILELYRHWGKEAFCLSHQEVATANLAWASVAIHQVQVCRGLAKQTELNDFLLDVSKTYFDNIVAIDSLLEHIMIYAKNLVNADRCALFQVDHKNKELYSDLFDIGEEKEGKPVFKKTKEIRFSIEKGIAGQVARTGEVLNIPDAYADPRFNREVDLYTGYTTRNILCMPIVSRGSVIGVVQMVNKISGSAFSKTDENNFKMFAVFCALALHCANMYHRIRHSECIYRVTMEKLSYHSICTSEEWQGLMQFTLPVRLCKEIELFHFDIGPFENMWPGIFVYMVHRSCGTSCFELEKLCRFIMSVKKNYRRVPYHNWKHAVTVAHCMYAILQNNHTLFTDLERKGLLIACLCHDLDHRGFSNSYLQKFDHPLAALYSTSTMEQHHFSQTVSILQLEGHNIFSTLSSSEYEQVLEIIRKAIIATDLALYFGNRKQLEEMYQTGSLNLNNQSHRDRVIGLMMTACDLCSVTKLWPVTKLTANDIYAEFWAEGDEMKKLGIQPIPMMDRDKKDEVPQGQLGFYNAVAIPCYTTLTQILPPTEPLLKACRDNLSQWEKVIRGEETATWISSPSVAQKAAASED

An IC50 of 1600 nM was found for Zinc42657360 in this work.
